What was measured:
[1] = system: carbapenem-resistant A. baumannii; assay: Murine chronic burn-wound infection model; assay type: in vivo, mice; details: 30 mg kg^−1 topically for 5 days; untreated 8 log CFU g^−1
Description: Fig. 6 (A) Propensity of vancomycin and VanQAmC10 to induce resistance in MRSA upon serial exposure to sub-MIC concentrations; (B) (i) experimental design for in vivo efficacy study in a murine thigh infection model, (ii) in vivo efficacy of VanQAmC10 and vancomycin against the multidrug-resistant methicillin-resistant S. aureus (MRSA) (n = 3/dose). Antibiotics were administered intraperitoneally twice at 12 h intervals at a dose of 12 mg kg^−1. (C) (i) Experimental design for in vivo efficacy study in murine burn wound infection model, (ii) in vivo efficacy of VanQAmC10 and colistin against the carbapenem-resistant A. baumannii (n = 5/dose, 1 mouse died in untreated control). VanQAmC10 and colistin were treated topically at 30 mg kg^−1 for 5 days (‘***’ indicates p < 0.0001, ‘**’ indicates p < 0.001, ‘*’ p < 0.05, p = 0.08 (n.s.) for VanQAmC10 with respect to vancomycin).
Further, the efficacy of VanQAmC10 (8) was tested in a chronic burn-wound infection model of A. baumannii.[40] Chronic burn wounds on the back of mice were infected with A. baumannii. […] Infected mice were treated with 30 mg kg^−1 of VanQAmC10 and colistin for five days consecutively. The bacterial load in the untreated group increased to 8 log CFU g^−1 six days post-infection. […] The use of colistin is however limited due to its toxicity and bacteria easily develop resistance to it. […]

[2] = system: GFP-FtsI expressing E. coli; design: method as in PMID 19995973; details: known inhibitor of FtsI; 22 μM in Fig. 5C; cited from earlier work

Compound | lower bacterial load as compared to the untreated mice [1] [log CFU g^−1] | phenotype and localization of GFP-FtsI [2]
colistin [reference compound] | 4.8 | 
CC1=C(C(=O)O)N2C(=O)[C@@H](NC(=O)[C@H](N)c3ccccc3)[C@H]2SC1 [Cephalexin] |  | filamentous phenotype with mislocalized GFP-FtsI protein

Reference: article PMC9977398, “Next-generation membrane-active glycopeptide antibiotics that also inhibit bacterial cell division” (Chemical Science, 2023)
